Experimental data: the supplement of paper PMC10949913

Experiments:
Assay in all cases: area under concentration-response curve (viability) (AUC (a.u.)); higher = less active
Details in all cases: 48 h
CU-ACC1 = system: CU-ACC1
Procedure, shortened: (§1)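 Three adrenocortical carcinoma cell lines were seeded at 500–1,000 cells/well in 5 µL medium in 1,536-well plates. 23 nL of each MIPE 5.0 library compound was added at 11 concentrations. After 48 h (per the protocol name), CellTiter-Glo was added for 15 minutes at room temperature and luminescence was read. Signals were normalised per plate to vehicle and empty-well controls. AC50 and area under the curve came from fitted concentration-response curves, keeping only inhibitory or non-responding curve classes.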

CU-ACC2 = system: CU-ACC2
Procedure, shortened: as §1

NCI-H295R = system: NCI-H295R
Procedure, shortened: as §1

In the case of `COCCNCCCn1c(C(=O)CF)c(-c2ccc(C)cc2)c2c(N)ncnc21`, the “area under concentration-response curve” value (CU-ACC1) is reported as 537, the “area under concentration-response curve” value (CU-ACC2) is reported as 655 and the “area under concentration-response curve” value (NCI-H295R) is reported as 581.

For `CC(C)=CCC/C(C)=C/CC/C(C)=C/CSc1ccccc1C(=O)O`, the “area under concentration-response curve” value (CU-ACC1) was 527, the “area under concentration-response curve” value (CU-ACC2) was 598 and the “area under concentration-response curve” value (NCI-H295R) was 540.

In the case of `CCN[C@H]1C[C@H](C)[S+](=O)([O-])c2sc([S+](N)(=O)[O-])cc21`, the “area under concentration-response curve” value (CU-ACC1) is reported as 514, the “area under concentration-response curve” value (CU-ACC2) is reported as 612 and the “area under concentration-response curve” value (NCI-H295R) is reported as 558.

`CSCC[C@H](NC(=O)[C@H](Cc1c[nH]c2ccccc12)NC(=O)CCNC(=O)OC(C)(C)C)C(=O)N[C@@H](CC(=O)O)C(=O)N[C@@H](Cc1ccccc1)C(N)=O` was tested, and the “area under concentration-response curve” value (CU-ACC1) was 495, the “area under concentration-response curve” value (CU-ACC2) was 579 and the “area under concentration-response curve” value (NCI-H295R) was 545.

`COC(=O)Nc1nc2cc(C(=O)c3cccs3)ccc2[nH]1` was tested, and the “area under concentration-response curve” value (CU-ACC1) was 496, the “area under concentration-response curve” value (CU-ACC2) was 516 and the “area under concentration-response curve” value (NCI-H295R) was 382.

`CCOC(=O)[C@H](CCc1ccccc1)N[C@@H](C)C(=O)N1[C@H](C(=O)O)C[C@@H]2CCC[C@@H]21` was tested, and the “area under concentration-response curve” value (CU-ACC1) was 545, the “area under concentration-response curve” value (CU-ACC2) was 649 and the “area under concentration-response curve” value (NCI-H295R) was 595.

In the case of `CNC(=O)Cn1cc(-c2ccc3c(c2)C(F)CC32NC(=O)N(CC(=O)N(Cc3ccc(F)cc3)[C@@H](C)C(F)(F)F)C2=O)cn1` (some centres not stated), the “area under concentration-response curve” value (CU-ACC1) is reported as 517, the “area under concentration-response curve” value (CU-ACC2) is reported as 549 and the “area under concentration-response curve” value (NCI-H295R) is reported as 504.

For `Cc1cc(SCc2sc(-c3ccc(C(F)(F)F)c(F)c3)nc2C)ccc1OCC(=O)O`, the “area under concentration-response curve” value (CU-ACC1) was 539, the “area under concentration-response curve” value (CU-ACC2) was 493 and the “area under concentration-response curve” value (NCI-H295R) was 565.

`CCCN[S+](=O)([O-])Nc1ncnc(OCCOc2ncc(Br)cn2)c1-c1ccc(Br)cc1` was tested, and the “area under concentration-response curve” value (CU-ACC1) was 381, the “area under concentration-response curve” value (CU-ACC2) was 567 and the “area under concentration-response curve” value (NCI-H295R) was 518.

For `COC(=O)Nc1nc2cc(C(=O)c3ccc(F)cc3)ccc2[nH]1`, the “area under concentration-response curve” value (CU-ACC1) was 570, the “area under concentration-response curve” value (CU-ACC2) was 574 and the “area under concentration-response curve” value (NCI-H295R) was 462.

In the case of `CC1=C(F)C=CC(=C1)N2C(=O)\C=C/C3=C2C4=C([NH]C=C4)N=C3`, the “area under concentration-response curve” value (CU-ACC1) is reported as 519, the “area under concentration-response curve” value (CU-ACC2) is reported as 509 and the “area under concentration-response curve” value (NCI-H295R) is reported as 527.

`CCCCCCNC(=O)N1\C=C(F)/C(=O)NC1=O` was tested, and the “area under concentration-response curve” value (CU-ACC1) was 513, the “area under concentration-response curve” value (CU-ACC2) was 633 and the “area under concentration-response curve” value (NCI-H295R) was 589.

For `CN1CCN(C(=O)[C@H]2[C@@H](C(=O)O)[C@H]3CC[C@@H]2O3)CC1`, the “area under concentration-response curve” value (CU-ACC1) was 628, the “area under concentration-response curve” value (CU-ACC2) was 699 and the “area under concentration-response curve” value (NCI-H295R) was 620.

For `CCN(C(=O)C/1=C(O)/C2=C(C=CC=C2Cl)N(C)C1=O)C3=CC=CC=C3`, the “area under concentration-response curve” value (CU-ACC1) was 489, the “area under concentration-response curve” value (CU-ACC2) was 566 and the “area under concentration-response curve” value (NCI-H295R) was 555.

For `COCCCN1CCC(NC(=O)c2cc(Cl)c(N)c3c2OCC3)CC1`, the “area under concentration-response curve” value (CU-ACC1) was 562, the “area under concentration-response curve” value (CU-ACC2) was 549 and the “area under concentration-response curve” value (NCI-H295R) was 565.

With `O=C(O)CCCCN(CCc1ccccc1OCc1ccc(CCc2ccccc2)cc1)Cc1ccc(C(=O)O)cc1` the “area under concentration-response curve” value (CU-ACC1) was 471, the “area under concentration-response curve” value (CU-ACC2) was 561 and the “area under concentration-response curve” value (NCI-H295R) was 495.

With `Oc1cc2c(cc1O)C1c3ccc(O)c(O)c3OCC1(O)C2` (configuration not stated) the “area under concentration-response curve” value (CU-ACC1) was 546, the “area under concentration-response curve” value (CU-ACC2) was 542 and the “area under concentration-response curve” value (NCI-H295R) was 527.

`CN(C)CC/C=C1/c2ccccc2COc2ccc(CC(=O)O)cc21` was tested, and the “area under concentration-response curve” value (CU-ACC1) was 467, the “area under concentration-response curve” value (CU-ACC2) was 570 and the “area under concentration-response curve” value (NCI-H295R) was 509.

For `COC1=C(OCCCOC2=C(OC)C=C3C(=O)N4CC(=C)C[C@H]4\C=N/C3=C2)C=C5\N=C/[C@@H]6CC(=C)CN6C(=O)C5=C1`, the “area under concentration-response curve” value (CU-ACC1) was 320, the “area under concentration-response curve” value (CU-ACC2) was 404 and the “area under concentration-response curve” value (NCI-H295R) was 444.

In the case of `COC(=O)/C=C/C(=O)N(O)CCCCNCc1ccc(COC(=O)Nc2cccc3ccccc23)cc1`, the “area under concentration-response curve” value (CU-ACC1) is reported as 208, the “area under concentration-response curve” value (CU-ACC2) is reported as 245 and the “area under concentration-response curve” value (NCI-H295R) is reported as 225.

With `OC1CCC(Nc2ncc3nc(Nc4c(F)cc(F)cc4F)n([C@@H]4CCOC4)c3n2)CC1` (some centres not stated) the “area under concentration-response curve” value (CU-ACC1) was 464, the “area under concentration-response curve” value (CU-ACC2) was 531 and the “area under concentration-response curve” value (NCI-H295R) was 446.

With `O=c1oc2c(O)c(O)cc3c(=O)oc4c(O)c(O)cc1c4c23` the “area under concentration-response curve” value (CU-ACC1) was 482, the “area under concentration-response curve” value (CU-ACC2) was 579 and the “area under concentration-response curve” value (NCI-H295R) was 517.

In the case of `CC(C)OC(=O)C(C)(C)Oc1ccc(C(=O)c2ccc(Cl)cc2)cc1`, the “area under concentration-response curve” value (CU-ACC1) is reported as 593, the “area under concentration-response curve” value (CU-ACC2) is reported as 608 and the “area under concentration-response curve” value (NCI-H295R) is reported as 517.

In the case of `Cc1noc(C)c1-c1ccc(-c2cc(C(N)=O)c(NC(N)=O)s2)c(O[C@H]2CCNC2)c1`, the “area under concentration-response curve” value (CU-ACC1) is reported as 456, the “area under concentration-response curve” value (CU-ACC2) is reported as 471 and the “area under concentration-response curve” value (NCI-H295R) is reported as 447.

In the case of `CN1C(=O)C(Cc2c[nH]c3ccccc23)NC1=S` (configuration not stated), the “area under concentration-response curve” value (CU-ACC1) is reported as 543, the “area under concentration-response curve” value (CU-ACC2) is reported as 639 and the “area under concentration-response curve” value (NCI-H295R) is reported as 568.

For `Cc1[nH]c(/C=C2\C(=O)Nc3ccccc32)c(C)c1CCC(=O)O`, the “area under concentration-response curve” value (CU-ACC1) was 496, the “area under concentration-response curve” value (CU-ACC2) was 535 and the “area under concentration-response curve” value (NCI-H295R) was 480.

`CC/1=C2/N(C(=O)C(=C1)/NC3=CC(=NC=N3)N)C4(CCCCC4)NC2=O` was tested, and the “area under concentration-response curve” value (CU-ACC1) was 594, the “area under concentration-response curve” value (CU-ACC2) was 641 and the “area under concentration-response curve” value (NCI-H295R) was 537.

For `O=C(NCC1CCOCC1)c1cnc(Nc2ccc(Cl)cc2Cl)nc1C(F)(F)F`, the “area under concentration-response curve” value (CU-ACC1) was 399, the “area under concentration-response curve” value (CU-ACC2) was 562 and the “area under concentration-response curve” value (NCI-H295R) was 525.

In the case of `COC1=C(OC)C=C2CN(CCC3=CC=C(C=C3)[N]4N=NC(=N4)C5=CC(=C(OC)C=C5NC(=O)\C6=C\C(=O)C7=CC=CC=C7O6)OC)CCC2=C1`, the “area under concentration-response curve” value (CU-ACC1) is reported as 735, the “area under concentration-response curve” value (CU-ACC2) is reported as 654 and the “area under concentration-response curve” value (NCI-H295R) is reported as 688.

`CC[S+](=O)([O-])N1CCC([C@@H](C)n2c(C)c(/C(O)=N/Cc3c(OC)cc(C)nc3O)c3ccccc32)CC1` was tested, and the “area under concentration-response curve” value (CU-ACC1) was 509, the “area under concentration-response curve” value (CU-ACC2) was 605 and the “area under concentration-response curve” value (NCI-H295R) was 537.

In the case of `CC1=CC/2=C(C=C1C)N(C[C@@H](O)[C@@H](O)[C@@H](O)CO)C/3=N/C(=O)NC(=O)C3=N2`, the “area under concentration-response curve” value (CU-ACC1) is reported as 481, the “area under concentration-response curve” value (CU-ACC2) is reported as 586 and the “area under concentration-response curve” value (NCI-H295R) is reported as 505.

For `CN1CCN(CC1)C2=C(NC(=O)C/3=C/NC(=O)/C=C3C(F)(F)F)C=C(C=C2)C4=CC(=CC=C4)CN5CCOCC5`, the “area under concentration-response curve” value (CU-ACC1) was 508, the “area under concentration-response curve” value (CU-ACC2) was 610 and the “area under concentration-response curve” value (NCI-H295R) was 514.

`CCOC\1=C(/C(=O)NC2=CC=C(OC3=C(Cl)C(=NC=C3)N)C(=C2)F)C(=O)N(\C=C1)C4=CC=C(F)C=C4` was tested, and the “area under concentration-response curve” value (CU-ACC1) was 522, the “area under concentration-response curve” value (CU-ACC2) was 578 and the “area under concentration-response curve” value (NCI-H295R) was 530.

For `Cc1cn(-c2cc(NC(=O)c3ccc(C)c(Nc4nccc(-c5cccnc5)n4)c3)cc(C(F)(F)F)c2)cn1`, the “area under concentration-response curve” value (CU-ACC1) was 438, the “area under concentration-response curve” value (CU-ACC2) was 506 and the “area under concentration-response curve” value (NCI-H295R) was 417.

With `COC/1=C(\CNC(=O)C2=C(C)[N]([C@H](C)C3CCN(CC3)CC(F)(F)F)C4=C2C=CC=C4)C(=O)N/C(=C1)C` the “area under concentration-response curve” value (CU-ACC1) was 453, the “area under concentration-response curve” value (CU-ACC2) was 556 and the “area under concentration-response curve” value (NCI-H295R) was 470.

In the case of `O[C@H](C[C@H]1c2c(F)cccc2-c2cncn21)[C@H]1CC[C@H](O)CC1`, the “area under concentration-response curve” value (CU-ACC1) is reported as 553, the “area under concentration-response curve” value (CU-ACC2) is reported as 616 and the “area under concentration-response curve” value (NCI-H295R) is reported as 536.

For `C[C@]\12CCC(=O)\C=C1CC[C@H]3[C@@H]4CC[C@](O)(C(=O)CO)[C@@]4(C)C[C@H](O)[C@H]23`, the “area under concentration-response curve” value (CU-ACC1) was 458, the “area under concentration-response curve” value (CU-ACC2) was 549 and the “area under concentration-response curve” value (NCI-H295R) was 512.

For `O=S(=O)([O-])CCS`, the “area under concentration-response curve” value (CU-ACC1) was 539, the “area under concentration-response curve” value (CU-ACC2) was 518 and the “area under concentration-response curve” value (NCI-H295R) was 551.

`Cc1[nH]c(/C=C2\C(=O)Nc3ccc([S+](=O)([O-])Cc4c(Cl)cccc4Cl)cc32)c(C)c1C(=O)N1CCC[C@@H]1CN1CCCC1` was tested, and the “area under concentration-response curve” value (CU-ACC1) was 334, the “area under concentration-response curve” value (CU-ACC2) was 351 and the “area under concentration-response curve” value (NCI-H295R) was 376.
